From patent EP4737450A1 (Longwood Pharmaceuticals (Hangzhou) Co., Ltd, priority 2023, dated 2025)

What was measured:
FXIa = FXIa (Homo sapiens, UniProt P03951); assay: Inhibitory activity against FXIa in vitro (biochemical assay); settings: values given in µM
Protocol: Test Example 1. Test of the inhibitory activities of the compounds of the present invention against plasma kallikrein (PKa), KLK1 and FXIa in vitro.
PKK (R & D, Cat # 2497-SE) and Pro-Phe-Arg-AMC (Nanjing Peptide, Cat # NJP23946) solutions were prepared in reaction buffer (50 mM Tris-HCl, pH 7.5, 250 mM NaCl). The final concentrations of enzyme protein and Pro-Phe-Arg-AMC in the reaction mixture were 10 nM and 60 µM, respectively. The starting concentration of the positive reference substance Avoralstat was 100 nM, 3-fold dilution, 10 + 0 dose. 0.05 µL of compound in 100% DMSO was delivered to a 384-well plate by an acoustic liquid delivery technique (Echo665; nanoliter range). Compound duplex test. 5 µL of 2 × enzyme solution was transferred to a 384 reaction plate and centrifuged at 1000 rpm for 1 minute, incubated at 25°C for 15 minutes; 5 µL of 2 × Pro-Phe-Arg-AMC solution was transferred to a 384 reaction plate, centrifuged at 1000 rpm for 1 minute, incubated at 25°C for 3 hours. […] IC50 values and nonlinear regression curve fitting were obtained using GraphPad Prism software.

plasma kallikrein (PKa) = molecular target: T1, plasma kallikrein (PKa) (Homo sapiens, UniProt P03952); assay: Inhibitory activity against plasma kallikrein in vitro (fluorescence intensity enzyme assay, Pro-Phe-Arg-AMC substrate); type: biochemical; settings: plasma kallikrein enzyme assay, Pro-Phe-Arg-AMC substrate; read-out: PKa IC50
T1 construct: purchased R & D 2497-SE
T1 sequence (P03952 391-638 limits assumed): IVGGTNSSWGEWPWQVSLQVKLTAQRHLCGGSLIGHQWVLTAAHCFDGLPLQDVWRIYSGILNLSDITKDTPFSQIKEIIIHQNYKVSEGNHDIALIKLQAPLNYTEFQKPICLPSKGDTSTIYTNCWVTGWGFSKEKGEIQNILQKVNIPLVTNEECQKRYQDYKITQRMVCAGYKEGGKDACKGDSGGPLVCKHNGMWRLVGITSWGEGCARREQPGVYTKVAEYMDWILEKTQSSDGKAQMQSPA
T1 sequence (P03952 20-390 partner limits assumed): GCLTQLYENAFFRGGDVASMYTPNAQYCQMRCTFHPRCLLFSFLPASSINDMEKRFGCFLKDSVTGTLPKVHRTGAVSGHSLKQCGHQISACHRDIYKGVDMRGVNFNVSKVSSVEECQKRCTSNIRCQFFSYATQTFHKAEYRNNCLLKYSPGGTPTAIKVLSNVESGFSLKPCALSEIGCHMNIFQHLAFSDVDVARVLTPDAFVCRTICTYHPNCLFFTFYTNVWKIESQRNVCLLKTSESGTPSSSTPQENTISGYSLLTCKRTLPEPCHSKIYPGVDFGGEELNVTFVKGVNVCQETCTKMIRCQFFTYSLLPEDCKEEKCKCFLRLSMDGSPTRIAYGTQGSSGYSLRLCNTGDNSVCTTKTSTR
Summary of the method: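 Fluorescence intensity enzyme assay with 10 nM enzyme and 60 µM Pro-Phe-Arg-AMC (final concentrations). Compounds in DMSO, tested in duplicate over a dose series. IC50 from nonlinear regression curve fitting.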

KLK1 = KLK1 (Homo sapiens, UniProt P06870); assay: Inhibitory activity against KLK1 in vitro (biochemical assay); settings: values given in µM
Sequence of KLK1 (P06870 25-262, species assumed): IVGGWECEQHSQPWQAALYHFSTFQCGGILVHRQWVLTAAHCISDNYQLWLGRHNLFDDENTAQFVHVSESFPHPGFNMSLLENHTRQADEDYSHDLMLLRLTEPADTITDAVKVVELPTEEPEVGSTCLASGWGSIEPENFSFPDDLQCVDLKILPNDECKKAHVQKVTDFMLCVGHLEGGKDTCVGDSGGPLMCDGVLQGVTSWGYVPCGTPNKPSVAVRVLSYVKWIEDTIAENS
Description: Test Example 1. Test of the inhibitory activities of the compounds of the present invention against plasma kallikrein (PKa), KLK1 and FXIa in vitro. […]

Sequence of FXIa (P03951 388-625 limits assumed): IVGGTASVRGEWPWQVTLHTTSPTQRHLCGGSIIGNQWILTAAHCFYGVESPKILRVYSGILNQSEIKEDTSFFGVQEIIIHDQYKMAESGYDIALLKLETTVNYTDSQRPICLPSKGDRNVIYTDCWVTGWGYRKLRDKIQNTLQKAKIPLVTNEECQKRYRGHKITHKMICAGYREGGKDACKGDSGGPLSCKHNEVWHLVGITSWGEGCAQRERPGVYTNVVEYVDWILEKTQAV
Sequence of FXIa (P03951 19-387 partner limits assumed): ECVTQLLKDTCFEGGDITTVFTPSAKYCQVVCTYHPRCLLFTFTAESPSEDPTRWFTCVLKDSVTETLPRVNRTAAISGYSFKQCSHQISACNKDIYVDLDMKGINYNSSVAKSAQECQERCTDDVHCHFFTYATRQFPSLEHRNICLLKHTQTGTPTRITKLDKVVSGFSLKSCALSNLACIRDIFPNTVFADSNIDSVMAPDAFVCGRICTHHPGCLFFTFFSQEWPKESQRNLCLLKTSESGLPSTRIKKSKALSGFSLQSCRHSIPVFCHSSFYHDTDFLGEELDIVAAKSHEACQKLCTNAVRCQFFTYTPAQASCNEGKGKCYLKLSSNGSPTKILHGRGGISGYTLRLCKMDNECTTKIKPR

**Q.** With `N=C(N)c1ccc(CNC(=O)c2cnn(Cc3ccc(N4CCOCC4)c(C(F)(F)F)c3)c2)cc1` [Compound 388] as the compound, how does the IC50 (FXIa) read?
**A.** > 10 µM

**Q.** And the IC50 (plasma kallikrein (PKa))?
**A.** 0.18 nM

**Q.** And the IC50 (KLK1)?
**A.** > 10 µM

**Q.** For `N=C(N)c1ccc(CNC(=O)c2cnn(Cc3ccc(CC4CC4)cc3)c2)c(F)c1` [Compound 270], which IC50 (FXIa) is on record?
**A.** > 10 µM

**Q.** What about the IC50 (plasma kallikrein (PKa)) of the same compound?
**A.** 0.18 nM

**Q.** And the IC50 (KLK1)?
**A.** > 10 µM

**Q.** `CCc1cc(N2CC3C(C2)C3(F)F)ccc1Cn1cc(C(=O)NCc2ccc(C(=N)N)cc2)cn1` (stereo not drawn) [Compound 16] was tested. Which IC50 (FXIa) did it give?
**A.** > 10 µM

**Q.** And the IC50 (plasma kallikrein (PKa))?
**A.** 1.24 nM

**Q.** And the IC50 (KLK1)?
**A.** > 10 µM

**Q.** With `O=C(NCc1ncc2c(c1F)NCC2)c1cnn(Cc2ccc(Cn3ccccc3=O)cc2)c1` [Compound 384] as the compound, how does the IC50 (FXIa) read?
**A.** > 10 µM

**Q.** What about the IC50 (plasma kallikrein (PKa)) of the same compound?
**A.** 2.17 nM

**Q.** And the IC50 (KLK1)?
**A.** > 10 µM

**Q.** How did the IC50 (FXIa) turn out when `N=C(N)c1ccc(CNC(=O)c2cnn(Cc3cc(Cl)c(CC4CC4)c(Cl)c3)c2)cc1` [Compound 372] was run?
**A.** > 10 µM

**Q.** And the IC50 (plasma kallikrein (PKa))?
**A.** 0.85 nM

**Q.** And the IC50 (KLK1)?
**A.** > 10 µM

**Q.** Which results are given for `Cc1cc2nccn2c(C)c1CNC(=O)c1cn(Cc2ccc(Cn3ccccc3=O)cc2)nc1C(F)(F)F` [Compound 142, N-((5,7-dimethylimidazo[1,2-a]pyridin-6-yl)methyl)-1-(4-((2-oxopyridin-1(2H)-yl)methyl]benzyl)-3-(trifluoromethyl)-1H-pyrazole-4-carboxamide]?
**A.** IC50 (FXIa): > 10 µM; IC50 (plasma kallikrein (PKa)): 0.35 nM; IC50 (KLK1): > 10 µM

**Q.** Which IC50 (FXIa) does the source give for `N=C(N)c1ccc(CNC(=O)c2cnn(Cc3ccc(OC4CC4)cc3)c2)cc1` [Compound 354] here?
**A.** > 10 µM

**Q.** And the IC50 (plasma kallikrein (PKa))?
**A.** 2.45 nM

**Q.** And the IC50 (KLK1)?
**A.** > 10 µM

**Q.** Which IC50 (FXIa) does the source give for `COCc1nn(Cc2ccc(Cn3ccccc3=O)cc2)cc1C(=O)NCc1ccc2c(N)nccc2c1` [Compound 71] here?
**A.** > 10 µM

**Q.** What about the IC50 (plasma kallikrein (PKa)) of the same compound?
**A.** 0.19 nM

**Q.** And the IC50 (KLK1)?
**A.** > 10 µM

**Q.** How did the IC50 (FXIa) turn out when `COCc1nn(Cc2ccc(Cn3ccccc3=O)cc2)cc1C(=O)NCc1ncc2c(c1F)OCC2` [Compound 396] was run?
**A.** > 10 µM

**Q.** And the IC50 (plasma kallikrein (PKa))?
**A.** 2.1 nM

**Q.** What about the IC50 (KLK1) of the same compound?
**A.** > 10 µM

**Q.** What does the source list for `Cc1nc(N)ccc1CNC(=O)c1ncn(Cc2ccc(Cn3ccccc3=O)cc2)n1` [Compound 27]?
**A.** IC50 (FXIa): > 10 µM; IC50 (plasma kallikrein (PKa)): 1.48 nM; IC50 (KLK1): > 10 µM

**Q.** How did the IC50 (FXIa) turn out when `COc1cc(Cn2cc(C(=O)NCc3ccc(C(=N)N)cc3)cn2)ccc1CC1CC1` [Compound 255] was run?
**A.** > 10 µM

**Q.** What about the IC50 (plasma kallikrein (PKa)) of the same compound?
**A.** 2.35 nM

**Q.** What about the IC50 (KLK1) of the same compound?
**A.** > 10 µM

**Q.** `COCc1nn(Cc2ccc(Cn3ccccc3=O)cc2)cc1C(=O)N[C@@H]1CCc2c1ncn2C` [Compound 70] was tested. Which IC50 (FXIa) did it give?
**A.** > 10 µM

**Q.** And the IC50 (plasma kallikrein (PKa))?
**A.** 1.87 nM

**Q.** What about the IC50 (KLK1) of the same compound?
**A.** > 10 µM

**Q.** With `Cn1ccc2cnc(CNC(=O)c3cnn(Cc4ccc(Cn5ccccc5=O)cc4)c3)c(F)c21` [Compound 356] as the compound, how does the IC50 (FXIa) read?
**A.** > 10 µM

**Q.** And the IC50 (plasma kallikrein (PKa))?
**A.** 2.23 nM

**Q.** What about the IC50 (KLK1) of the same compound?
**A.** > 10 µM

**Q.** With `N=C(N)c1ccc(CNC(=O)c2cnn(Cc3ccc(Cn4ccccc4=O)cc3)c2)c(F)c1` [Compound 341] as the compound, how does the IC50 (FXIa) read?
**A.** > 10 µM

**Q.** And the IC50 (plasma kallikrein (PKa))?
**A.** 0.07 nM

**Q.** And the IC50 (KLK1)?
**A.** > 10 µM

**Q.** `COCc1cn(Cc2ccc(CN3CCCCC3=O)cc2)nc1C(=O)NCc1c(C)cc(N)nc1C` [Compound 74] was tested. Which IC50 (FXIa) did it give?
**A.** > 10 µM

**Q.** And the IC50 (plasma kallikrein (PKa))?
**A.** 5.7 nM

**Q.** And the IC50 (KLK1)?
**A.** > 10 µM

**Q.** How did the IC50 (FXIa) turn out when `CN(C)c1ccnc(CNC(=O)c2cn(Cc3ccc(Cn4ccccc4=O)cc3)nc2C2COC2)c1F` [Compound 335] was run?
**A.** > 10 µM

**Q.** And the IC50 (plasma kallikrein (PKa))?
**A.** 1.92 nM

**Q.** What about the IC50 (KLK1) of the same compound?
**A.** > 10 µM

**Q.** What does the source list for `N=C(N)c1ccc(CNC(=O)c2cnn(Cc3cc(F)c(OC4CC4)c(F)c3)c2)cc1` [Compound 365]?
**A.** IC50 (FXIa): > 10 µM; IC50 (plasma kallikrein (PKa)): 1.87 nM; IC50 (KLK1): > 10 µM

**Q.** `Cc1cc(N)nc(C)c1CNC(=O)c1ncn(Cc2cc(Cl)c(Cn3ccccc3=O)cc2Cl)n1` [Compound 80] was tested. Which IC50 (FXIa) did it give?
**A.** > 10 µM

**Q.** What about the IC50 (plasma kallikrein (PKa)) of the same compound?
**A.** 0.096 nM

**Q.** What about the IC50 (KLK1) of the same compound?
**A.** > 10 µM

**Q.** For `CN(C)c1ccnc(CNC(=O)c2cn(Cc3ccc(Cn4ccccc4=O)cc3)nc2C2CC2(F)F)c1F` (stereo not drawn) [Compound 310], which IC50 (FXIa) is on record?
**A.** > 10 µM

**Q.** And the IC50 (plasma kallikrein (PKa))?
**A.** 1.6 nM

**Q.** What about the IC50 (KLK1) of the same compound?
**A.** > 10 µM

**Q.** What does the source list for `COc1ccc(Cl)c(CNC(=O)c2cn(Cc3ccc(Cn4ccccc4=O)cc3)nc2COCC2(F)COC2)c1F` [Compound 289]?
**A.** IC50 (FXIa): > 10 µM; IC50 (plasma kallikrein (PKa)): 2.31 nM; IC50 (KLK1): > 10 µM

**Q.** Which results are given for `N=C(N)c1ccc(CNC(=O)c2cnn(Cc3cc(Cl)c(C(=O)C4CC4)c(Cl)c3)c2)cc1` [Compound 393]?
**A.** IC50 (FXIa): > 10 µM; IC50 (plasma kallikrein (PKa)): 1.05 nM; IC50 (KLK1): > 10 µM

**Q.** Which IC50 (FXIa) does the source give for `COc1cc(Cn2cc(C(=O)NCc3ccc(C(=N)N)cc3)cn2)cc(OC)c1CC1CC1` [Compound 375] here?
**A.** > 10 µM

**Q.** What about the IC50 (plasma kallikrein (PKa)) of the same compound?
**A.** 0.85 nM

**Q.** And the IC50 (KLK1)?
**A.** > 10 µM

**Q.** `Cc1cn2cncc2c(C)c1CNC(=O)c1cn(Cc2ccc(Cn3ccccc3=O)cc2)nc1C(F)(F)F` [Compound 203] was tested. Which IC50 (FXIa) did it give?
**A.** > 10 µM

**Q.** What about the IC50 (plasma kallikrein (PKa)) of the same compound?
**A.** 0.53 nM

**Q.** And the IC50 (KLK1)?
**A.** > 10 µM

**Q.** Which IC50 (FXIa) does the source give for `Cc1nc(C)n(Cc2ccc(Cn3cc(C(=O)NCc4ccc(C(=N)N)cc4F)cn3)cc2)n1` [Compound 351] here?
**A.** > 10 µM

**Q.** And the IC50 (plasma kallikrein (PKa))?
**A.** 1.13 nM

**Q.** What about the IC50 (KLK1) of the same compound?
**A.** > 10 µM
